In brackets after ≈: the same amount, converted by molar mass.
What was measured:
[1] = system: WRL68 cells; experiment: MTT cytotoxicity assay; assay type: cell-based; conditions: Homo sapiens, mean ± SEM (n = 9)
Method: (§1) MTT assay was performed as described by Pérez-Jiménez et al.. Briefly, samples containing 200 µL cell suspension (1 × 10^4 cells/well) were cultured in 96 well plates, in triplicate of three populations of the both cell lines. Subsequent to adherence of the cells within 12 h of incubation, Uvaol was added to the wells at a concentration between 0–140 μg/mL and maintained during 24, 48 and 72 h. MTT was dissolved in the medium and added to the wells at a final concentration of 0.5 mg/mL. Following 2 h of incubation, the generated formazan was dissolved in DMSO. Absorbance was measured at 570 nm in a multiplate reader (Bio-tek®, Winooski, VT, USA). The concentrations that caused 20%, 50% and 80% of inhibition of cell viability (IC20, IC50 and IC80) were calculated following the formula: % […] = (A0 − AT)/A0·100, where A0 is the control absorbance (100% of cell viability) and AT is de absorbance of the incubated cells with the different concentrations of uvaol. OriginPro 8 (OriginLab Corporation, Northampton, MA, USA) was used to performance a dose-response analysis by the following formula: y=A1+ A2− A1/1+10^(Log x0−x)p
(§2) In which Logx0 is the center of the curve, p the slope, A1 the lower asymptote and A2 the upper asymptote in the adjustment model described.

[2] = system: HepG2 cells; experiment: MTT cytotoxicity assay; assay type: cell-based, human; conditions: for IC20 / IC50 / IC80: Homo sapiens, mean ± SEM (n = 9)
Method: as §1, §2

[3] = system: HepG2 cells; experiment: Muse cell cycle assay (flow cytometry); assay type: cell-based, human; conditions: HepG2, IC50, 24 h
Method: (§3) A total of 1.5 × 10^5 cells were seeded per well in 24-well plates for each cell line (quadruplicates for three different populations of each cell line). […] Negative control populations were incubated only with the appropriate culture medium. The samples were analyzed in the Muse^TM Cell Analyzer (Merck-Millipore®, Burlington, MA, USA). The method is based on the analysis of the cell cycle through the discrimination of three populations: cells in phase G0/G1, S or G2/M. For this, the Muse^TM Cell Cycle Kit purchased from Millipore (Billerica, MA, USA) was used following the specification of manufacturer.

[4] = system: WRL68 cells; experiment: Muse cell cycle assay (flow cytometry); assay type: cell-based, human; conditions: WRL68, IC50, 24 h
Method: as §3

[5] = system: HepG2 cells; experiment: Muse Oxidative Stress kit, ROS production; assay type: cell-based, human; conditions: HepG2, IC50, 24 h
Method: (§4) A total of 1.5 × 10^5 cells were seeded per well in 24-well plates for each cell line (quadruplicates for three different populations of each cell line). […] Negative control populations were incubated only with the appropriate culture medium. The samples were analyzed in the Muse^TM Cell Analyzer (Merck-Millipore®, Burlington, MA, USA). The method is based on the use of dihydroetide (DHE), a reagent capable of crossing the cell membrane and interacting with superoxide anions, a type of ROS. In this process, DHE oxidizes and forms the DNA intercalating agent ethidium bromide, detectable by its fluorescence emission. […] The Muse^TM Oxidative Stress kit purchased from Millipore (Billerica, MA, USA) was used for this purpose.

[6] = system: WRL68 cells; experiment: Muse Oxidative Stress kit, ROS production; assay type: cell-based, human; conditions: WRL68, IC50, 24 h
Method: as §4

[7] = system: lymphoma cells (U937); parameters: method as in PMID 21142067; conditions: U937, 10 and 100 µM; cited from earlier work
[8] = system: MDA-MB-231 (triple negative breast cancer); parameters: method as in PMID 21142067; conditions: MDA-MB-231, 10 and 100 µM; cited from earlier work
[9] = system: MCF-7 cells; parameters: method as in PMID 21142067; conditions: MCF-7, 10 and 100 µM; cited from earlier work
[10] = system: MCF-7 line; parameters: method as in PMID 21142067; conditions: MCF-7, 44.27 μg/mL, same phase = G0/G1; cited from earlier work

Q: With `C[C@H]1[C@H](C)CC[C@]2(CO)CC[C@]3(C)C(=CC[C@@H]4[C@@]5(C)CC[C@H](O)C(C)(C)[C@@H]5CC[C@]43C)[C@H]12` [uvaol, urs-12-ene-3,28-diol] as the molecule, how does the IC20 ([1]; WRL68, 24 h exposure) read?
A: 27.6 ± 2.9 µg/mL (≈ 62.3 µM)

Q: And the IC50 ([1]; WRL68, 24 h exposure)?
A: 54.3 µg/mL (≈ 123 µM)

Q: And the IC20 ([1]; WRL68, 48 h exposure)?
A: 13.3 ± 0.8 µg/mL (≈ 30 µM)

Q: What about the IC50 ([1]; WRL68, 48 h exposure) of the same molecule?
A: 35.9 ± 0.7 µg/mL (≈ 81.1 µM)

Q: What about the IC80 ([1]; WRL68, 48 h exposure) of the same molecule?
A: 79.8 ± 0.6 µg/mL (≈ 180 µM)

Q: And the IC20 ([1]; WRL68, 72 h exposure)?
A: 6.8 ± 0.6 µg/mL (≈ 15.4 µM)

Q: And the IC50 ([1]; WRL68, 72 h exposure)?
A: 19.5 ± 1.1 µg/mL (≈ 44 µM)

Q: And the IC80 ([1]; WRL68, 72 h exposure)?
A: 47.2 ± 4.3 µg/mL (≈ 107 µM)

Q: What about the “IC50 in control cells (WRL68) relative to tumor cells (HepG2)” value ([2]; 24 h IC50 WRL68 vs HepG2) of the same molecule?
A: more than twice

Q: What about the IC20 ([2]; HepG2, 24 h exposure) of the same molecule?
A: 8.2 ± 1.8 µg/mL (≈ 18.5 µM)

Q: What about the IC50 ([2]; HepG2, 24 h exposure) of the same molecule?
A: 25.2 µg/mL (≈ 56.9 µM)

Q: And the IC20 ([2]; HepG2, 48 h exposure)?
A: 6.4 ± 0.4 µg/mL (≈ 14.5 µM)

Q: And the IC50 ([2]; HepG2, 48 h exposure)?
A: 20 ± 0.3 µg/mL (≈ 45.2 µM)

Q: And the IC80 ([2]; HepG2, 48 h exposure)?
A: 61.7 ± 5.3 µg/mL (≈ 139 µM)

Q: And the IC20 ([2]; HepG2, 72 h exposure)?
A: 4 ± 0.2 µg/mL (≈ 9.03 µM)

Q: What about the IC50 ([2]; HepG2, 72 h exposure) of the same molecule?
A: 14.1 ± 1 µg/mL (≈ 31.8 µM)

Q: And the IC80 ([2]; HepG2, 72 h exposure)?
A: 39.2 ± 2.4 µg/mL (≈ 88.5 µM)

Q: What about the “change in percentage of cells in G0/G1 phase vs control” value [3] of the same molecule?
A: statistically significant increase

Q: And the “change in percentage of cells in G2/M phase vs control” value [3]?
A: equally significant reduction

Q: And the “change in percentage of cells in S phase vs control” value [3]?
A: No differences were found

Q: And the “change in percentage of cells in G0/G1 phase vs control” value [4]?
A: significant decrease

Q: What about the “change in percentage of cells in G2/M phase vs control” value [4] of the same molecule?
A: increase

Q: And the “change in percentage of cells in S phase vs control” value [4]?
A: significant decrease

Q: And the “change in percentage of cells expressing ROS vs control” value [5]?
A: significant decrease

Q: What about the “change in ROS levels vs control” value [6] of the same molecule?
A: without significant differences

Q: What about the induction of apoptosis [7] of the same molecule?
A: induced apoptosis

Q: And the induction of apoptosis [8]?
A: did not show this effect

Q: And the induction of apoptosis [9]?
A: did not show this effect

Q: And the cell cycle arrest [10]?
A: arrest in the same phase of the cycle

Source: paper PMC7571068, “Antiproliferative and Pro-Apoptotic Effect of Uvaol in Human Hepatocarcinoma HepG2 Cells by Affecting G0/G1 Cell Cycle Arrest, ROS Production and AKT/PI3K Signaling Pathway” (Molecules, 2020)
